In the NIST ThermoML archive (doi:10.1016/j.tca.2012.10.004):

What was measured:
[1] = xn = mol fraction of the nth substance listed; settings: 101 kPa, Liquid, Pycnometric method
[2] = relative permittivity at zero frequency (dimensionless); xn = mol fraction of the nth substance listed; settings: 101 kPa, Liquid, Coaxial cylinder capacitor

CN(CCO)CCO [N-methyldiethanolamine] + O=S1(=O)CCCC1
Settings | mass density, [1] [kg/m3] | relative permittivity at zero frequency, [2]
293.15 K, x1 = 0.1001 | 1241.9 | 40.8
293.15 K, x1 = 0.2012 | 1214.9 | 38.3
293.15 K, x1 = 0.2999 | 1188 | 35.5
293.15 K, x1 = 0.4003 | 1163.1 | 33.5
293.15 K, x1 = 0.5005 | 1139.8 | 31.7
293.15 K, x1 = 0.6 | 1118.1 | 30.2
293.15 K, x1 = 0.7002 | 1097.7 | 28.4
293.15 K, x1 = 0.8011 | 1078.9 | 26.6
293.15 K, x1 = 0.8998 | 1059.9 | 24.6
293.15 K, x1 = 1 | 1041.6 | 22.9
298.15 K, x1 = 0.1001 | 1237.6 | 40.1
298.15 K, x1 = 0.2012 | 1210.5 | 37.6
298.15 K, x1 = 0.2999 | 1183.9 | 34.8
298.15 K, x1 = 0.4003 | 1159.1 | 32.8
298.15 K, x1 = 0.5005 | 1135.7 | 31
298.15 K, x1 = 0.6 | 1114.1 | 29.5
298.15 K, x1 = 0.7002 | 1093.6 | 27.7
298.15 K, x1 = 0.8011 | 1074.9 | 26
298.15 K, x1 = 0.8998 | 1055.9 | 24.1
298.15 K, x1 = 1 | 1037.9 | 22.4
303.15 K, x1 = 0.1001 | 1233.1 | 39.4
303.15 K, x1 = 0.2012 | 1205.9 | 36.9
303.15 K, x1 = 0.2999 | 1179.5 | 34.1
303.15 K, x1 = 0.4003 | 1154.8 | 32.1
303.15 K, x1 = 0.5005 | 1131.5 | 30.3
303.15 K, x1 = 0.6 | 1110 | 28.8
303.15 K, x1 = 0.7002 | 1089.6 | 27
303.15 K, x1 = 0.8011 | 1070.9 | 25.3
303.15 K, x1 = 0.8998 | 1051.9 | 23.6
303.15 K, x1 = 1 | 1034.1 | 21.8
308.15 K, x1 = 0.1001 | 1228.6 | 38.7
308.15 K, x1 = 0.2012 | 1201.5 | 36.1
308.15 K, x1 = 0.2999 | 1175.1 | 33.4
308.15 K, x1 = 0.4003 | 1150.4 | 31.3
308.15 K, x1 = 0.5005 | 1127.2 | 29.5
308.15 K, x1 = 0.6 | 1105.8 | 28.1
308.15 K, x1 = 0.7002 | 1085.6 | 26.3
308.15 K, x1 = 0.8011 | 1066.8 | 24.6
308.15 K, x1 = 0.8998 | 1048 | 22.9
308.15 K, x1 = 1 | 1030.3 | 21.3
313.15 K, x1 = 0.1001 | 1224.1 | 38
313.15 K, x1 = 0.2012 | 1197 | 35.5
313.15 K, x1 = 0.2999 | 1170.7 | 32.7
313.15 K, x1 = 0.4003 | 1146.2 | 30.6
313.15 K, x1 = 0.5005 | 1123.1 | 28.7
313.15 K, x1 = 0.6 | 1101.6 | 27.4
313.15 K, x1 = 0.7002 | 1081.5 | 25.6
313.15 K, x1 = 0.8011 | 1062.8 | 24
313.15 K, x1 = 0.8998 | 1044 | 22.2
313.15 K, x1 = 1 | 1026.5 | 20.8
318.15 K, x1 = 0.1001 | 1219.6 | 37.4
318.15 K, x1 = 0.2012 | 1192.4 | 34.6
318.15 K, x1 = 0.2999 | 1166.3 | 32
318.15 K, x1 = 0.4003 | 1141.9 | 29.9
318.15 K, x1 = 0.5005 | 1118.9 | 28
318.15 K, x1 = 0.6 | 1097.5 | 26.7
318.15 K, x1 = 0.7002 | 1077.5 | 24.9
318.15 K, x1 = 0.8011 | 1058.7 | 23.3
318.15 K, x1 = 0.8998 | 1040 | 21.7
318.15 K, x1 = 1 | 1022.7 | 20.3
323.15 K, x1 = 0.1001 | 1215.2 | 36.7
323.15 K, x1 = 0.2012 | 1187.6 | 33.9
323.15 K, x1 = 0.2999 | 1161.9 | 31.3
323.15 K, x1 = 0.4003 | 1137.5 | 29.2
323.15 K, x1 = 0.5005 | 1114.6 | 27.3
323.15 K, x1 = 0.6 | 1093.3 | 26
323.15 K, x1 = 0.7002 | 1073.3 | 24.2
323.15 K, x1 = 0.8011 | 1054.7 | 22.7
323.15 K, x1 = 0.8998 | 1035.9 | 21.2
323.15 K, x1 = 1 | 1018.9 | 19.8
328.15 K, x1 = 0.1001 | 1211.1 | 36.2
328.15 K, x1 = 0.2012 | 1183.3 | 33.2
328.15 K, x1 = 0.2999 | 1157.7 | 30.6
328.15 K, x1 = 0.4003 | 1133.2 | 28.5
328.15 K, x1 = 0.5005 | 1110.4 | 26.5
328.15 K, x1 = 0.6 | 1089.2 | 25.2
328.15 K, x1 = 0.7002 | 1069.2 | 23.5
328.15 K, x1 = 0.8011 | 1050.6 | 22.1
328.15 K, x1 = 0.8998 | 1032 | 20.5
328.15 K, x1 = 1 | 1015 | 19.3
